A word on the Ki: it is a measure of affinity in units of concentration, obtained from inhibition or displacement. As usually defined, the EC50 is the concentration needed to bring the measured effect to its halfway point. Low values mean a more potent agent, high ones a less potent agent.

Data on 11 compounds can be found in patent EP0741709B1, “AROMATIC 2-AMINO-IMIDAZOLE DERIVATIVES AS ALPHA-2A ADRENOCEPTOR AGONISTS” (Allergan Sales, Inc., priority 1994, dated 1995).

The target of assay [1] is α1 receptors. Briefly: Receptor binding assay, [3H]prazosin, human cerebral cortex (HCC) membranes. As to conditions: 22°C, 30 minutes, read-out: Ki (nM) α1 human brain. On the procedure:
Tissue preparation: Membrane suspensions were prepared from human cerebral cortex (HCC, for α1 receptors) obtained from the UCI Organ and Tissue Bank. Briefly, tissues (1g) were homogenized in 25 mL of ice-cold 5 mM tris, pH 7.4 with a Polytron homogenizer for 30 sec at setting #7, and centrifuged for 10-12 minutes at 300 x g a 4°C. The supernatant was filtered through 2 layers of gauze and diluted 1:2 with 50 mM Tris-HCl buffer, pH 7.4, then centrifuged at 49,000 x g for 20 minutes. The pellet fraction was washed 3 times (resuspended in Tris-HCl buffer and centrifuged for 20 minutes at 49,000 x g). The pellet was then stored at -80°C until the binding assay.
Binding Studies: The radioligands [^3H]rauwolscine (specific activity 80 Ci/mmol) and [^3H]prazosin (specific activity 76 Ci/mmol) were obtained from New England Nuclear, Boston, MA. Frozen membrane pellet was resuspended in 25 mM glycine/glycine, pH 7.5 and incubated with radioligand under the following conditions: CHO-C10, CHO-RNG, CHO-C4-[^3H]rauwolscine, 22°C, 30 minutes; RKC-[^3H]rauwolscine, 0°C, 120 minutes; and, HCC-[^3H]prazosin, 22°C, 30 minutes in a final volume of 500 ul. At the end of the incubation period, the samples were filtered through glass filters (Whatman GF/B) in a 96 well cell harvester and rapidly washed four times with 4 mL of iced-cold 50 mM Tris-HCl buffer. The filters were then oven dried and transferred to scintillation vials containing 10 mL of Beckman's Ready Protein® scintillation cocktail for counting. Specific binding defined by 10 uM phentolamine for competition studies were as follows: 2.4 nM [^3H]brimonidine-RbICB 62%; 2.4 nM [^3H]rauwolscine-RbICB 75%; 2 nM [^3H]rauwolscine-RbKc 88%; 0.3 nM [^3H] rauwolscine-CHO-C10 99%; 0.4 nM [^3H]rauwolscine-CHO-RNG 99%, 0.3 nM [^3H]prazosin 87%; and 1 nM [^3H]rauwolscine-CHO-C4 90%. Protein concentrations were determined with a protein assay kit from Bio Rad. Binding isotherms, equilibrium dissociation and affinity constants were analyzed and determined by the non-linear least squares curve fitting programs EBDA (BioSoft) or AccuFit Competition/Saturation by Beckman.
The radioligands [^3H)rauwolscine (specific activity 80 Ci/mmol) and [^3H]prazosin (specific activity 76 Ci/mmol) were obtained from New England Nuclear, Boston, MA. Frozen membrane pellet was resuspended in 25 mM glycine/glycine, pH 7.4 and incubated with radioligand under the following conditions: CHO-C10, CHO-RNG, CHO-C4-[^3H]rauwolscine, 22°C, 30 min.; and, HCC-[^3H]prazosin, 22°C, 30 minutes in a final volume of 500 ul. At the end of the incubation period, the samples were filtered through glass fiber filters (Whatman GF/B) in a 96 well cell harvester and rapidly washed four times with 4 mL of iced-cold 50 mM Tris-CHl buffer. The filters were then oven dried and transferred to scintillation vials containing 5 mL of Beckman's Ready Protein® scintillation cocktail for counting. Specific binding defined by 10 uM phentolamine for competition studies were as follows: 0.3 nM[^3H] rauwolscine-CHO-C10 99%; 0.4 nM [^3H]rauwolscine-CHO-RNG 99%, and 0.3 nM [^3H] prazosin-HCC 87%. Protein concentrations were determined with a protein assay kit from Bio Rad. Binding isotherms, equilibrium dissociation and affinity constants were analyzed and determined by the non-linear least squares curve fitting programs AccuFit Competition/Saturation by Beckman.

Assay [2] concerns the target T1, α2A receptor (Oryctolagus cuniculus, UniProt Q5ZQK3).
T1 construct: The prostatic ends of the vas deferens (2-3 cm) were removed from albino rabbits; from tissue; host or cells: rabbit vas deferens (prostatic end)
T1 sequence (Q5ZQK3 1-451): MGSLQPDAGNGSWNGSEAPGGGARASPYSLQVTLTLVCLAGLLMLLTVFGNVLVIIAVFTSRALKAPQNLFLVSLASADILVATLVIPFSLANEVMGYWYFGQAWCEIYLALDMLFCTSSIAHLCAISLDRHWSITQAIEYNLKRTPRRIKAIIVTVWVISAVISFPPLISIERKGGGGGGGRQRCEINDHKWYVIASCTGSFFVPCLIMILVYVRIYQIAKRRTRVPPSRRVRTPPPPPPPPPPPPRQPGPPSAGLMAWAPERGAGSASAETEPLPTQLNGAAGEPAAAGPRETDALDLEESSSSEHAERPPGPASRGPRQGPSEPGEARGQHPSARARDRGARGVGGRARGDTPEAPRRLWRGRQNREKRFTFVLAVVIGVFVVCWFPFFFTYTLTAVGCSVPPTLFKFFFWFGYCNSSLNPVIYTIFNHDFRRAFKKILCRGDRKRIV
Briefly: Vas deferens functional assay: reduction of electrically evoked contractions. The format is cell-based. As to conditions: field-stimulated isolated rabbit vas deferens, 50% reduction in peak height. On the procedure: Vas Deferens: The prostatic ends of the vas deferens (2-3 cm) were removed from albino rabbits and mounted between platinum electrodes in 9 mL organ baths containing Krebs-Hensleit solution of the following composition (mM): NaCl 119, KCl 4.7, MgSO4 1.5, KH2PO4 1.2. CaCl2 2.5, NaHCO3 25 and glucose 11. This solution was maintained at 35° C and bubbled with 95% O2 and 5% CO2. The tissue was equilibrated at 0.5 g tension for 30 minutes. The vas deferens strips were then field stimulated at 0.1 Hz, 2 msec, 90 mA using a square wave stimulator (World Precision Instruments A310 Accupulser / A385 Stimulus Isolater), or a Grass S48 stimulator at 0.1 Hz, 2 msec, 70 volts. After 30 minutes of electrical stimulation, cumulative concentration-response curves in 0.25 log units were obtained with a 4 minute contact time for each concentration. Each tissue was used to evaluate only one drug. Tissue contractions produced by the field stimulation were measured isometrically using Grass FT-.03 force-displacement transducers and recorded on a Grass Model 7D physiograph. The reduction in electrically-evoked peak height by the drugs was measured and expressed as a percentage of the pre-drug peak height.
Representative compounds of the present invention, and comparative examples, were tested according to the procedures given above. The receptor binding studies and […] are measures of the affinity of a compound for a particular receptor. The vas deferens assay is a measure of the degree of activation of the α2A affected when a compound binds to that receptor.

On to `Clc1cccc(Cl)c1Nc1ncc[nH]1`, for which the Ki in assay [1] came to 5940 nM. Further, the EC50 in assay [2] was determined as 86.3 nM. Turning to `Brc1ccccc1Nc1ncc[nH]1`, the Ki in assay [1] came out at 9980 nM. Same read-out and setting: then `Clc1ccccc1Nc1ncc[nH]1`, with 23200 nM; and `COc1ccc(Nc2ncc[nH]2)c(C)c1`, with 7610 nM. `c1ccc(Nc2ncc[nH]2)cc1`: the Ki in assay [1] was 67500 nM. In assay [2], this compound came in with an EC50 of 56200 nM.

Consider `Cc1ccccc1Nc1ncc[nH]1`, for which the Ki in assay [1] turned out to be 10600 nM. `Cc1c(Nc2ncc[nH]2)ccc2c1NCCO2`: the Ki in assay [1] was found to be 14800 nM. Turning to `Cc1c(Nc2ncc[nH]2)ccc2nccnc12`, in assay [1], the Ki came out at 30600 nM. In addition, the EC50 in assay [2] was determined as 35.3 nM. Regarding `c1cc2c(c(Nc3ncc[nH]3)c1)CCCC2`, the Ki in assay [1] was 4980 nM.

As for `Cc1c(Nc2ncc[nH]2)ccc2c1OCCO2`, the inhibition constant Ki in assay [1] worked out at 2150 nM. The EC50 in assay [2] is 1.61 nM.

As for `Brc1c(Nc2ncc[nH]2)ccc2nccnc12`, the Ki in assay [1] worked out at 100000 nM. This compound showed a 50% effective concentration (EC50) in assay [2] of 49.4 nM.
